In patent US8637509B2, “Azaindazoles” (GlaxoSmithKline LLC, priority 2010, dated 2014):

These compounds were tested against T1, EZH2 (Homo sapiens, UniProt Q15910) (assay: EZH2 methyltransferase SPA assay (3H-SAM, Hela nucleosomes)). Conditions: 10 nM EZH2, 7 μg/ml Hela nucleosomes, 2-parameter IC50 fit; single-point-in-time values; read-out: IC50.
T1 construct: GRITS37108
Format: biochemical
Procedure: • 1. […] Prepare 500 μM SAH quench solution in ddH20 with 5-10 drops of concentrated HCl to dissolve. • 5. Prepare 6 mg/ml RNA binding SPA beads (Perkin Elmer) suspended in 0.2 M Citric Acid, pH 2.2
Part C. […] Dispense 5 μL no enzyme control (assay buffer mix) to column 18 of plates. • 2. Dispense 5 μL of enzyme mix to the remaining wells in the plate. Centrifuge plate to mix and incubate at room temperature for 30 minutes. • 3. Dispense 5 μL of substrate mix to all wells to initiate the reactions. Centrifuge plate to mix and incubate at room temperature for 2 hours. • 4. […] Dispense 10 μL of 6 mg/ml RNA binding SPA beads prepared in 0.2 M citric acid, pH 2.2 using the Evolution instrument. Continuously shake the beads while adding to plates to prevent beads from settling. • 6. Seal the plates with Perkin Elmer top seals and allow the beads to equilibrate in the plate for at least 30 minutes at room temperature. • 7. […] Read plates in Microbeta after at least 5 hours incubation. Plates can be read immediately, but signal increases over time.
Reagent addition can be done manually or with automated liquid handler.
*The final DMSO concentration in this assay is 1%.
*The positive control is in column 6; negative control is in column 18.

T1 sequence (Q15910 whole entry): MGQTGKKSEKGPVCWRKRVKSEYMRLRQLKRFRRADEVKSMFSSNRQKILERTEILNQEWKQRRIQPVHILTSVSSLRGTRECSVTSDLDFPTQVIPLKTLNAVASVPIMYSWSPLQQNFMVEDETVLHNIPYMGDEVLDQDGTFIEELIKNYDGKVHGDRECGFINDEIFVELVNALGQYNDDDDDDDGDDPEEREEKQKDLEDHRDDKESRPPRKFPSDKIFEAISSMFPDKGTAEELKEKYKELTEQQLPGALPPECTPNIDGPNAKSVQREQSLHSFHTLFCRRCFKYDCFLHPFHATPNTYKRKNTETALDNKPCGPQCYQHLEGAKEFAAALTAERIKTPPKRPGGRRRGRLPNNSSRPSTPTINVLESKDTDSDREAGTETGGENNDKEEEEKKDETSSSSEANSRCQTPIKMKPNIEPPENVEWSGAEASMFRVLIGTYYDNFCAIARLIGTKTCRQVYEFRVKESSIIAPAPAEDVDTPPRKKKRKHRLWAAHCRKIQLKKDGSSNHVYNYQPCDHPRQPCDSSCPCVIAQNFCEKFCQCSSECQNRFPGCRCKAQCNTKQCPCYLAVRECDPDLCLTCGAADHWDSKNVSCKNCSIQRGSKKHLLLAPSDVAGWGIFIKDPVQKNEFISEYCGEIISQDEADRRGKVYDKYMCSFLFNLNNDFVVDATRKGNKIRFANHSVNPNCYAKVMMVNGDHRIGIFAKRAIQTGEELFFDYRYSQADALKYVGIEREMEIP
T1 sequence (O75530 whole entry partner): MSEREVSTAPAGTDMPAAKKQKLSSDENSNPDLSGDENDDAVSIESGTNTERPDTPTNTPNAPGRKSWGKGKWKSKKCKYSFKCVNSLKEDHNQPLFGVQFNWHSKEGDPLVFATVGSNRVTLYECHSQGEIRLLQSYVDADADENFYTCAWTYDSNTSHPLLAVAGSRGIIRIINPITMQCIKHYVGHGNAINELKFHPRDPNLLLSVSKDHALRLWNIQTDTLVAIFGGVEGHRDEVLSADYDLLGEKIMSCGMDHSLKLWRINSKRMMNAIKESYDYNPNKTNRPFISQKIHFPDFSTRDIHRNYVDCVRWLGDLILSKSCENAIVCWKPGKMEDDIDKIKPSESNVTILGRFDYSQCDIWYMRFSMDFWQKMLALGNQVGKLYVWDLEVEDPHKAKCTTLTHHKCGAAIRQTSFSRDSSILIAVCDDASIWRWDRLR
T1 sequence (Q15022 whole entry partner): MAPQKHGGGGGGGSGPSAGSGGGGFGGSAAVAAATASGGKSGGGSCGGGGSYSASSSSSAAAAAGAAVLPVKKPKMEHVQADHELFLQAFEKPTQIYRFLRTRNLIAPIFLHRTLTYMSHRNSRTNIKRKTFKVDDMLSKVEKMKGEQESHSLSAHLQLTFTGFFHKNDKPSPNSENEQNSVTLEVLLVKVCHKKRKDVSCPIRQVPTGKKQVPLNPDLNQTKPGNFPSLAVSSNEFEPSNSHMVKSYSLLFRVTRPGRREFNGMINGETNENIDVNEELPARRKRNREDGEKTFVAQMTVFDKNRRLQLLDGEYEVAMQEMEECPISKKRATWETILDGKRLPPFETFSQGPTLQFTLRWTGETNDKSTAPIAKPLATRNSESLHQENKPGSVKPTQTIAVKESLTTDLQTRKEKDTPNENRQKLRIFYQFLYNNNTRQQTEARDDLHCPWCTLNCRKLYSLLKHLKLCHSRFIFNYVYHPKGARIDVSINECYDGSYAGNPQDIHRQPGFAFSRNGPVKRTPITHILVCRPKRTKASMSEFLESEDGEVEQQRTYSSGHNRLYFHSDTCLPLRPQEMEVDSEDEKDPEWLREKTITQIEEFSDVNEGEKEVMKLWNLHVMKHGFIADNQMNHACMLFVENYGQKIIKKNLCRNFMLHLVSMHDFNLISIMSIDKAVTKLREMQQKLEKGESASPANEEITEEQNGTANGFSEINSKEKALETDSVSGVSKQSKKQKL

Compound | IC50 [µM]
6-{[4-(Aminocarbonyl)phenyl]amino}-N-[(4,6-dimethyl-2-oxo-1,2-dihydro-3-pyridinyl)methyl]-1-(1-methylethyl)-1H-pyrazolo[3,4-b]pyridine-4-carboxamide [Ex 86] | 0.142

Same assay, conditions: read-out: IC50

IC50 [µM] | Compound
0.055 | Cc1cc(C)c(CNC(=O)c2cc(-c3cncc(NS(=O)(=O)c4ccccc4)c3)nc3c2cnn3C(C)C)c(=O)[nH]1 [Ex 65, N-[(4,6-Dimethyl-2-oxo-1,2-dihydro-3-pyridinyl)methyl]-1-(1-methylethyl)-6-{5-[(phenylsulfonyl)amino]-3-pyridinyl}-1H-pyrazolo[3,4-b]pyridine-4-carboxamide]
0.055 | Cc1cc(C(C)C)c(CNC(=O)c2cc(-c3ccncc3)nc3c2cnn3C(C)C)c(=O)[nH]1 [Ex 12, 1-(1-Methylethyl)-N-{[6-methyl-4-(1-methylethyl)-2-oxo-1,2-dihydro-3-pyridinyl]methyl}-6-(4-pyridinyl)-1H-pyrazolo[3,4-b]pyridine-4-carboxamide]
0.673 | Cc1cc(C)c(CNC(=O)c2cc(N3CCOCC3)nc3c2cnn3C(C)C)c(=O)[nH]1 [Ex 26, N-[(4,6-Dimethyl-2-oxo-1,2-dihydro-3-pyridinyl)methyl]-1-(1-methylethyl)-6-(4-morpholinyl)-1H-pyrazolo[3,4-b]pyridine-4-carboxamide]
0.533 | Cc1cc(C)c(CNC(=O)c2cc(-c3cccnc3)nc3c2cnn3C(C)C)c(=O)[nH]1 [Ex 73, N-[(4,6-Dimethyl-2-oxo-1,2-dihydro-3-pyridinyl)methyl]-1-(1-methylethyl)-6-(3-pyridinyl)-1H-pyrazolo[3,4-b]pyridine-4-carboxamide]
0.081 | Cc1cc(C)c(CNC(=O)c2cc(-c3ccc(S(N)(=O)=O)cc3)nc3c2cnn3C(C)C)c(=O)[nH]1 [Ex 50, 6-[4-(Aminosulfonyl)phenyl]-N-[(4,6-dimethyl-2-oxo-1,2-dihydro-3-pyridinyl)methyl]-1-(1-methylethyl)-1H-pyrazolo[3,4-b]pyridine-4-carboxamide]
2.11 | Cc1cc(C)c(CNC(=O)c2cc(NCCN(C)C)nc3c2cnn3C(C)C)c(=O)[nH]1 [Ex 56, 6-{[2-(Dimethylamino)ethyl]amino}-N-[(4,6-dimethyl-2-oxo-1,2-dihydro-3-pyridinyl)methyl]-1-(1-methylethyl)-1H-pyrazolo[3,4-b]pyridine-4-carboxamide]
0.373 | Cc1cc(C)c(CNC(=O)c2cc(C3CC3)nc3c2c(C)nn3C(C)C)c(=O)[nH]1 [Ex 103, 6-Cyclopropyl-N-[(4,6-dimethyl-2-oxo-1,2-dihydro-3-pyridinyl)methyl]-3-methyl-1-(1-methylethyl)-1H-pyrazolo[3,4-b]pyridine-4-carboxamide]
0.402 | Cc1cc(C)c(CNC(=O)c2cc(-c3cn[nH]c3)nc3c2cnn3C(C)C)c(=O)[nH]1 [Ex 71, N-[(4,6-Dimethyl-2-oxo-1,2-dihydro-3-pyridinyl)methyl]-1-(1-methylethyl)-6-(1H-pyrazol-4-yl)-1H-pyrazolo[3,4-b]pyridine-4-carboxamide]
0.198 | Cc1cc(C)c(CNC(=O)c2cc(-c3ccc(N)nc3)nc3c2cnn3C(C)C)c(=O)[nH]1 [Ex 60, 6-(6-Amino-3-pyridinyl)-N-[(4,6-dimethyl-2-oxo-1,2-dihydro-3-pyridinyl)methyl]-1-(1-methylethyl)-1H-pyrazolo[3,4-b]pyridine-4-carboxamide]
0.052 | Cc1cc(C)c(CNC(=O)c2cc(-c3ccc4[nH]c(=O)[nH]c4c3)nc3c2c(C)nn3C(C)C)c(=O)[nH]1 [Ex 77, N-[(4,6-dimethyl-2-oxo-1,2-dihydro-3-pyridinyl)methyl]-3-methyl-1-(1-methylethyl)-6-(2-oxo-2,3-dihydro-1H-benzimidazol-5-yl)-1H-pyrazolo[3,4-b]pyridine-4-carboxamide]
0.103 | Cc1cc(C)c(CNC(=O)c2cc(-c3ccc(C(N)=O)cc3)nc3c2cnn3C(C)C)c(=O)[nH]1 [Ex 94, 6-[4-(Aminocarbonyl)phenyl]-N-[(4,6-dimethyl-2-oxo-1,2-dihydro-3-pyridinyl)methyl]-1-(1-methylethyl)-1H-pyrazolo[3,4-b]pyridine-4-carboxamide]
25 | Cc1cc(C)c(CNC(=O)c2cc(C3CC3)nc3c2cnn3CCNS(C)(=O)=O)c(=O)[nH]1 [Ex 99, 6-Cyclopropyl-N-[(4,6-dimethyl-2-oxo-1,2-dihydro-3-pyridinyl)methyl]-1-{2-[(methylsulfonyl)amino]ethyl}-1H-pyrazolo[3,4-b]pyridine-4-carboxamide]
0.784 | Cc1cc(C)c(CNC(=O)c2cc(NCCO)nc3c2cnn3C(C)C)c(=O)[nH]1 [Ex 57, N-[(4,6-Dimethyl-2-oxo-1,2-dihydro-3-pyridinyl)methyl]-6-[(2-hydroxyethyl)amino]-1-(1-methylethyl)-1H-pyrazolo[3,4-b]pyridine-4-carboxamide]
0.273 | Cc1cc(C)c(CNC(=O)c2cc(C(C)(C)C)nc3c2c(C)nn3C(C)(C)C)c(=O)[nH]1 [Ex 118, 1,6-Bis(1,1-dimethylethyl)-N-[(4,6-dimethyl-2-oxo-1,2-dihydro-3-pyridinyl)methyl]-3-methyl-1H-pyrazolo[3,4-b]pyridine-4-carboxamide]
0.475 | Cc1cc(C)c(CNC(=O)c2cc(Cl)nc3c2cnn3C(C)C)c(=O)[nH]1 [Ex 1, 6-Chloro-N-[(4,6-dimethyl-2-oxo-1,2-dihydro-3-pyridinyl)methyl]-1-(1-methylethyl)-1H-pyrazolo[3,4-b]pyridine-4-carboxamide]
0.167 | Cc1cc(C(C)C)c(CNC(=O)c2cc(C3CC3)nc3c2cnn3C(C)C)c(=O)[nH]1 [Ex 8, 6-Cyclopropyl-1-(1-methylethyl)-N-{[6-methyl-4-(1-methylethyl)-2-oxo-1,2-dihydro-3-pyridinyl]methyl}-1H-pyrazolo[3,4-b]pyridine-4-carboxamide]
0.071 | Cc1cc(C)c(CNC(=O)c2cc(-c3ccc4[nH]c(=O)[nH]c4c3)nc3c2cnn3C(C)C)c(=O)[nH]1 [Ex 80, N-[(4,6-Dimethyl-2-oxo-1,2-dihydro-3-pyridinyl)methyl]-1-(1-methylethyl)-6-(2-oxo-2,3-dihydro-1H-benzimidazol-5-yl)-1H-pyrazolo[3,4-b]pyridine-4-carboxamide]
0.055 | CNS(=O)(=O)c1ccc(-c2cc(C(=O)NCc3c(C)cc(C)[nH]c3=O)c3cnn(C(C)C)c3n2)cn1 [Ex 97, N-[(4,6-Dimethyl-2-oxo-1,2-dihydro-3-pyridinyl)methyl]-6-{6-[(methylamino)sulfonyl]-3-pyridinyl}-1-(1-methylethyl)-1H-pyrazolo[3,4-b]pyridine-4-carboxamide]
0.099 | Cc1cc(C)c(CNC(=O)c2cc(Nc3ccncc3)nc3c2cnn3C(C)C)c(=O)[nH]1 [Ex 84, N-[(4,6-Dimethyl-2-oxo-1,2-dihydro-3-pyridinyl)methyl]-1-(1-methylethyl)-6-(4-pyridinylamino)-1H-pyrazolo[3,4-b]pyridine-4-carboxamide]
0.082 | Cc1cc(C)c(CNC(=O)c2cc(-c3ccc4[nH]nnc4c3)nc3c2cnn3C(C)C)c(=O)[nH]1 [Ex 76, 6-(1H-1,2,3-Benzotriazol-5-yl)-N-[(4,6-dimethyl-2-oxo-1,2-dihydro-3-pyridinyl)methyl]-1-(1-methylethyl)-1H-pyrazolo[3,4-b]pyridine-4-carboxamide]
0.407 | COc1ccc(-c2cc(C(=O)NCc3c(C)cc(C)[nH]c3=O)c3c(C)nn(C(C)(C)C)c3n2)cc1 [Ex 121, 1-(1,1-Dimethylethyl)-N-[(4,6-dimethyl-2-oxo-1,2-dihydro-3-pyridinyl)methyl]-3-methyl-6-[4-(methyloxy)phenyl]-1H-pyrazolo[3,4-b]pyridine-4-carboxamide]
0.079 | COc1ncc(-c2cc(C(=O)NCc3c(C)cc(C)[nH]c3=O)c3cnn(C(C)C)c3n2)cc1NS(=O)(=O)C1CC1 [Ex 64, 6-[5-[(Cyclopropylsulfonyl)amino]-6-(methyloxy)-3-pyridinyl]-N-[(4,6-dimethyl-2-oxo-1,2-dihydro-3-pyridinyl)methyl]-1-(1-methylethyl)-1H-pyrazolo[3,4-b]pyridine-4-carboxamide]
0.248 | COc1ccc(-c2cc(C(=O)NCc3c(C)cc(C)[nH]c3=O)c3cnn(C(C)C)c3n2)cc1 [Ex 113, N-[(4,6-Dimethyl-2-oxo-1,2-dihydro-3-pyridinyl)methyl]-1-(1-methylethyl)-6-[4-(methyloxy)phenyl]-1H-pyrazolo[3,4-b]pyridine-4-carboxamide]
0.569 | CCc1cc(C)c(CNC(=O)c2cc(-c3ccncc3)nc3c2cnn3C(C)C)c(=O)[nH]1 [Ex 10, N-[(6-Ethyl-4-methyl-2-oxo-1,2-dihydro-3-pyridinyl)methyl]-1-(1-methylethyl)-6-(4-pyridinyl)-1H-pyrazolo[3,4-b]pyridine-4-carboxamide]
0.806 | Cc1cc(C)c(CNC(=O)c2cc(Cl)nc3c2c(C)nn3C(C)C)c(=O)[nH]1 [Ex 2, 6-Chloro-N-[(4,6-dimethyl-2-oxo-1,2-dihydro-3-pyridinyl)methyl]-3-methyl-1-(1-methylethyl)-1H-pyrazolo[3,4-b]pyridine-4-carboxamide]
0.161 | Cc1cc(C)c(CNC(=O)c2cc(-c3ccc(NS(C)(=O)=O)cc3)nc3c2cnn3C(C)C)c(=O)[nH]1 [Ex 51, N-[(4,6-Dimethyl-2-oxo-1,2-dihydro-3-pyridinyl)methyl]-1-(1-methylethyl)-6-{4-[(methylsulfonyl]amino]phenyl}-1H-pyrazolo[3,4-b]pyridine-4-carboxamide]
0.067 | Cc1cc(C)c(CNC(=O)c2cc(-c3ccc(N4CCOCC4)nc3)nc3c2c(C)nn3C(C)(C)C)c(=O)[nH]1 [Ex 89, 1-(1,1-Dimethylethyl)-N-[(4,6-dimethyl-2-oxo-1,2-dihydro-3-pyridinyl)methyl]-3-methyl-6-[6-(4-morpholinyl)-3-pyridinyl]-1H-pyrazolo[3,4-b]pyridine-4-carboxamide]
0.074 | CC(=O)Nc1ccc(-c2cc(C(=O)NCc3c(C)cc(C)[nH]c3=O)c3cnn(C(C)C)c3n2)cc1 [Ex 44, 6-[4-(acetylamino)phenyl]-N-[(4,6-dimethyl-2-oxo-1,2-dihydro-3-pyridinyl)methyl]-1-(1-methylethyl)-1H-pyrazolo[3,4-b]pyridine-4-carboxamide]
